In brackets after ≈: the same amount, converted by molar mass. Like-named read-outs stand apart in the source and are kept apart here. Where a SMILES comes first, the peptide text is derived from it. [ ]: non-standard residue; d: D form. Gly(N(CH2)2(3-indolyl)) = O=C(O)CNCCc1c[nH]c2ccccc12; Nspe = C[C@H](NCC(=O)O)c1ccccc1; Nlys = NCCCCNCC(=O)O
Tests used:
[1] = test system: S. aureus ATCC 25923
How it was run: (§1)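 Cation-adjusted MHB2 cultures (18 h, subcultured 4 h) adjusted to 2×10^5–5×10^5 CFU/mL in medium with 0.02% BSA and 0.001% acetic acid.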

[2] = test system: E. coli ATCC25922
How it was run: as §1

[3] = test system: red blood cells; assay: Hemolysis assay; type: cell-based, Sprague-Dawley mouse
How it was run: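 Peptoid is mixed with 10% (v/v) PBS-washed erythrocytes (male Sprague-Dawley […], 13 weeks) and held 1 h at 37 °C. Hemolysis is calculated from 540 nm absorbance of the supernatant, with PBS as 0% and Triton X-100 as 100%.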

[4] = test system: Human lung cells (MRC-5); assay: in vitro; conditions: read-out: LC50 MRC-5; 24 hours incubation; concentration that causes 50% cell lethality
Procedure: (§2) Human lung cells (MRC-5) were purchased from the Korean Cell Line Bank, and human keratinocytes (HaCaT) were purchased from the AmorePacific R&D Center. All cells were grown in a Dulbecco's modified Eagle's medium containing 10% fetal bovine serum under conditions of 5% CO2 and 37° C. To confirm the effect of a peptoid on cell growth, 3-(4,5-dimethylthiazol-2-yl)-5-(3-carboxymethoxyphenyl)-2-(4-sulfophenyl)-2H-tetrazolium (MTS) cell assay was performed to determine cell viability. An aliquot (100 μL) of a batch including 1.3×10^4 MRC-5 cells/mL or 3×10^4 HaCaT cells/mL was dispensed into each well of a 96-well plate. The cells were grown at 37° C. in a 5% CO2 humid atmosphere and allowed to adhere for 24 hours. When the cells reached approximately 70% confluency, the medium was replaced with serial dilutions of the peptoid stock and incubated for 24 hours. 20 μL of a CellTiter 96 aqueous non-radioactive cell proliferation assay reagent (Promega, USA) including a tetrazolium compound was added to each well.
(§3) The contents in the plate were metabolized by incubating at 37° C. for 4 hours. An MTS-formazan product of viable cells was measured at 490 nm using a microplate reader, and cell viability (%) was calculated by Equation 2 below and compared with untreated cells.
(§4) Cell viability (%)=[A/(Acontrol)]×100 [Equation 2]
(§5) In Equation 2, A is the absorbance of a test well, and Acontrol is the average absorbance of a well containing untreated cells.
(§6) The term “nd” shown in Table 19 below is the abbreviation for not determined, and indicates a value that is too small or too large to be measured.

[5] = HPLC to confirm peptoid decomposition after counter ion substitution; type: physicochemical; conditions: HPLC at 220 nm; HCl and AcOH
Procedure: FIGS. 76 to 83 are the HPLC results for Peptoids 1, 10, 11, 14, 15, 29, 32 and 37 of the present inventive concept to confirm the decomposition of the peptoids after counter ion substitution using (a) HCl and (b) AcOH.
Referring to FIGS. […], HPLC was performed for Peptoids 1, 10, 11, 14, 15, 29, 32 and 37 of the present inventive concept. Since the chloride (HCl) is a stronger acid than TFA, it can decompose acid-vulnerable peptoid compounds.

[6] = test system: Enterococcus Faecium KCTC 13225; assay: MIC in multidrug-resistant bacteria, modified microdilution method; type: cell-based; conditions: Table 14
Procedure: (§7) The MIC of the prepared peptoid in multidrug-resistant bacteria was measured using a modified microdilution method in a Difco Mueller Hinton medium, and a test was performed on a bacterial pathogen panel with resistant and tolerance to general antibiotics.
(§8) Briefly, a medium containing bovine serum albumin and 0.001% acetic acid was used to continuously dilute a peptoid concentrate 10-times stronger than the final concentration. 10 uμL of the 10-time stronger peptoid concentrate and 90 μL of a Muleller Hinton medium were added to each well of a 96-well plate. Bacteria were added to the plate until the final concentration reached 2×10^5 CFU/mL and then incubated at […] overnight. MIC was defined as a concentration at which bacterial growth is not observed.

[7] = test system: Enterococcus faecalis KCTC 3511; assay: as above; type: cell-based; conditions: Table 14
Procedure: as §7, §8

[8] = test system: E. coli KCTC 2411; assay: as above; type: cell-based; conditions: Table 14
Procedure: as §7, §8

[9] = test system: Enterobacter SP KCTC 2625; assay: as above; type: cell-based; conditions: Table 14
Procedure: as §7, §8

[10] = in vitro; conditions: human, LC50 MRC-5
Procedure: as §2, §3, §4, §5, §6

[11] = Table 18, TFA salt vs counter ion-substituted (HCl, AcOH) peptoids
[12] = Table 18, TFA salt vs counter ion-substituted peptoids
[13] = Tables 11-13, 24 hours at 37° C., maximum concentration 25 μM

| Compound | MIC S. aureus ATCC 25923 [1, 11] [µM] | MIC E. coli ATCC25922 [2, 11] [µM] | HC10 [3, 12] [µM] | HC50 [3, 12] [µM] | Hmax (100 μM) [3, 12] [%] | CC50 [4] [µM] | peptoid decomposition after counter ion substitution (in words) [5] | MIC S. aureus ATCC 25923 [1, 13] [µM] | MIC E. coli ATCC25922 [2, 13] [µM] | MIC Enterococcus Faecium KCTC 13225 [6] [µM] | MIC Enterococcus faecalis KCTC 3511 [7] [µM] | MIC E. coli KCTC 2411 [8] [µM] | MIC Enterobacter SP KCTC 2625 [9] [µM] | CC50 at 24 h [10] [µM] | HC10 [3] [µM] | HC50 [3] [µM] | HC10 ([3]; Tables 11-13, concentration that induces hemolysis in 10% red blood cells) [µM] | HC50 ([3]; Tables 11-13, concentration that induces hemolysis in 50% red blood cells) [µM] |
| --- | --- | --- | --- | --- | --- | --- | --- | --- | --- | --- | --- | --- | --- | --- | --- | --- | --- | --- |
| C[C@@H](c1ccccc1)N(CC(N)=O)C(=O)CN(C(=O)CN(CCCCN)C(=O)CN(C(=O)CN(C(=O)CN(CCCCN)C(=O)CN(C(=O)CN(C(=O)CN(CCCCN)C(=O)CN(C(=O)CN(C(=O)CNCCCCN)[C@@H](C)c1ccccc1)[C@@H](C)c1ccccc1)[C@@H](C)c1ccccc1)[C@@H](C)c1ccccc1)[C@@H](C)c1ccccc1)[C@@H](C)c1ccccc1)[C@@H](C)c1ccccc1 [Peptoid 1-1, reference compound] (H-[Nlys][Nspe][Nspe][Nlys][Nspe][Nspe][Nlys][Nspe][Nspe][Nlys][Nspe][Nspe]-NH2) | 1.6 | 6.3 | 27.6 | 83.3 | 61.5 ± 0.9 | 11.8 |  |  |  |  |  |  |  |  |  |  |  |  |
| C[C@@H](c1ccccc1)N(CC(N)=O)C(=O)CN(C(=O)CN(CCCCN)C(=O)CN(C(=O)CN(C(=O)CN(CCCCN)C(=O)CN(C(=O)CN(C(=O)CN(CCCCN)C(=O)CN(C(=O)CN(C(=O)CNCCCCN)[C@@H](C)c1ccccc1)[C@@H](C)c1ccccc1)[C@@H](C)c1ccccc1)[C@@H](C)c1ccccc1)[C@@H](C)c1ccccc1)[C@@H](C)c1ccccc1)[C@@H](C)c1ccccc1 [Peptoid 1-2, reference compound] (H-[Nlys][Nspe][Nspe][Nlys][Nspe][Nspe][Nlys][Nspe][Nspe][Nlys][Nspe][Nspe]-NH2) | 3.1 | 12.5 | 25.0 | 78.6 | 58.2 ± 1.7 | 8.6 |  |  |  |  |  |  |  |  |  |  |  |  |
| C[C@@H](c1ccccc1)N(CC(=O)N(CCCCN)CC(=O)N(CC(=O)N(CC(=O)N(CCCCN)CC(=O)N(CC(=O)N(CC(=O)N(CCCCN)CC(=O)N(CCc1c[nH]c2ccccc12)CC(=O)N(CCc1c[nH]c2ccccc12)CC(N)=O)[C@@H](C)c1ccccc1)[C@@H](C)c1ccccc1)[C@@H](C)c1ccccc1)[C@@H](C)c1ccccc1)C(=O)CN(C(=O)CNCCCCN)[C@@H](C)c1ccccc1 [Peptoid 11, H-NLys-Nspe-Nspe-NLys-Nspe-Nspe-NLys-Nspe-Nspe-NLys-NhTrp-NhTrp-NH2] (H-[Nlys][Nspe][Nspe][Nlys][Nspe][Nspe][Nlys][Nspe][Nspe][Nlys][Gly(N(CH2)2(3-indolyl))][Gly(N(CH2)2(3-indolyl))]-NH2) | 1.6 | 3.1 |  |  |  |  | almost no peptoid decomposition occurred | 1.6 (≈ 3.04 µg/mL) | 6.3 (≈ 12 µg/mL) | < 0.8 | < 0.8 | 12.5 (≈ 23.7 µg/mL) | 6.3 (≈ 12 µg/mL) | 6.9 |  |  |  |  |
| C[C@@H](c1ccccc1)N(CC(N)=O)C(=O)CN(C(=O)CN(CCCCN)C(=O)CN(C(=O)CN(C(=O)CN(CCCCN)C(=O)CN(C(=O)CN(C(=O)CN(CCCCN)C(=O)CN(CCc1c[nH]c2ccccc12)C(=O)CN(CCc1c[nH]c2ccccc12)C(=O)CNCCCCN)[C@@H](C)c1ccccc1)[C@@H](C)c1ccccc1)[C@@H](C)c1ccccc1)[C@@H](C)c1ccccc1)[C@@H](C)c1ccccc1 [Peptoid 14, H-NLys-NhTrp-NhTrp-NLys-Nspe-Nspe-NLys-Nspe-Nspe-NLys-Nspe-Nspe-NH2] | 1.6 | 3.1 |  |  |  |  | almost no peptoid decomposition occurred | <0.8 | 3.1 (≈ 5.88 µg/mL) | < 0.8 | 1.6 (≈ 3.04 µg/mL) | 6.3 (≈ 12 µg/mL) | 3.1 (≈ 5.88 µg/mL) | 9.7 | 12.5 | 21.1 | 23.6 | 43.4 |
